For orientation: Emax means the maximal effect, on the per cent scale that the assay sets.

Each structure is given as a SMILES string.

D2 receptor, sequence (P14416 whole entry): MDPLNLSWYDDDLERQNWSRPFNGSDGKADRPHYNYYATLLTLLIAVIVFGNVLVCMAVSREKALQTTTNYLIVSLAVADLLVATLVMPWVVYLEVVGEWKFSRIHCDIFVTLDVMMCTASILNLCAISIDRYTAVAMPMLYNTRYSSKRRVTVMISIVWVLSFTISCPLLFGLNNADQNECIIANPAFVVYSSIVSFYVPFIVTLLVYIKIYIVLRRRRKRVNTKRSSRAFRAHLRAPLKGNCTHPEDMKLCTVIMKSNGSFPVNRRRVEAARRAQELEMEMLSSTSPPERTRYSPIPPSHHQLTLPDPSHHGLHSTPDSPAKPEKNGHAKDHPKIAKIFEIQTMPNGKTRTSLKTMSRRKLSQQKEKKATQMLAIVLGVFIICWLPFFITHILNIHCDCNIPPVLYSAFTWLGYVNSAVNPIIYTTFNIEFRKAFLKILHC

The first experiment addresses D2 receptor (Homo sapiens, UniProt P14416). The experiment can be described thus: [3H]Thymidine uptake assay for D2 intrinsic activity. The experiment is classed as cell-based. The following applies: Table 1; test compound 1 μM; 1 μM Quinpirole = 100% intrinsic activity.
Description: D2 intrinsic activity of title compounds of the Examples, below, was determined using the [^3H]thymidine uptake assay described below.
[^3H]Thymidine Uptake Assay for D2 Intrinsic Activity
Cells are serum deprived by washing twice with 200 μl of serum-free media. 90 μl serum-free media was added to each well. The plates ware incubated for two to three hours. 10 μl of serum-containing media, as a positive control, vehicle (serum-free media), negative control (an antagonist) or test compounds and standards (10 μl of a 10 μM solution for a final concentration of 1 μM) in serum-free media were added to wells. The plates are returned to the incubator. Eighteen hours later [^3H]thymidine is added (0.5 μCi/well in 10 μl of serum-free media) and the plates are returned to the incubator. […] The plates are returned to the incubator, once again. One hour later the assay is terminated by rapid filtration through Whatman GF/C glass fiber filters. Filters are washed four times with 500 ml of 50 mM Tris-HCl pH 7.0 buffer, for example, using a Brandel MLR-96T cell harvester. […] Intrinsic activity is defined as total uptake (1 μM Quinpirole) minus serum-free media (no uptake). Test compounds are compared to 1 μM Quinpirole (full DA agonist), which was classified as 100% intrinsic activity.
With `CC1CC(=O)Nc2nc(OCCCCN3CCN(c4cccc(Cl)c4Cl)CC3)ccc21` (single isomer, unassigned) [Example D2a, 7-{4-[4-(2,3-Dichloro-phenyl)-piperazin-1-yl]-butoxy}-4-methyl-3,4-dihydro-1H-[1,8]naphthyridin-2-one], the Emax at 1 µM stood at 20%. In the case of `CC1Cc2ccc(OCCCCN3CCN(c4cccc(Cl)c4Cl)CC3)nc2NC1=O` (single isomer, unassigned) [Example D6a, 7-{4-[4-(2,3-Dichloro-phenyl)-piperazin-1-yl]-butoxy}-3-methyl-3,4-dihydro-1H-[1,8]naphthyridin-2-one], the Emax at 1 µM stood at 17%.

In turn, `O=C1CCc2ccc(OCCCCN3CCN(c4ccc(F)c(Cl)c4Cl)CC3)nc2N1` [Example A8, 7-{4-[4-(2,3-Dichloro-4-fluoro-phenyl)-piperazin-1-yl]-butoxy}-3,4-dihydro-1H-[1,8]naphthyridin-2-one] returned an Emax at 1 µM of 7%. The compound `O=C1CCc2ccc(OCCCCN3CCN(c4ccc(F)cc4Cl)CC3)nc2N1` [Example A9, 7-{4-[4-(2-Chloro-4-fluoro-phenyl)-piperazin-1-yl]-butoxy}-3,4-dihydro-1H-[1,8]naphthyridin-2-one] came in with an Emax at 1 µM of 9%. Still for that read-out and setting: to `O=C1CCc2ccc(OCCCCN3CCN(c4ccccc4-c4ccccc4)CC3)nc2N1` [Example A11, 7-[4-(4-Biphenyl-2-yl-piperazin-1-yl)-butoxy]-3,4-dihydro-1H-[1,8]naphthyridin-2-one] belongs 6%; to `O=C1CCc2ccc(OCCCCN3CCN(c4cc(Cl)ccc4Cl)CC3)nc2N1` [Example A12, 7-{4-[4-(2,5-Dichloro-phenyl)-piperazin-1-yl]-butoxy}-3,4-dihydro-1H-[1,8]naphthyridin-2-one], 11%; to `Cc1cc(N2CCN(CCCCOc3ccc4c(n3)NC(=O)CC4)CC2)c(Cl)cc1F` [Example A13, 7-{4-[4-(2-Chloro-4-fluoro-5-methyl-phenyl)-piperazin-1-yl]-butoxy}-3,4-dihydro-1H-[1,8]naphthyridin-2-one], 21%.

Take `Cc1ccc(Cl)cc1N1CCN(CCCCOc2ccc3c(n2)NC(=O)CC3)CC1` [Example A14, 7-{4-[4-(5-Chloro-2-methyl-phenyl)-piperazin-1-yl]-butoxy}-3,4-dihydro-1H-[1,8]naphthyridin-2-one]: the Emax at 1 µM is 7%.

The compound `Cc1c(F)ccc(N2CCN(CCCCOc3ccc4c(n3)NC(=O)CC4)CC2)c1Cl` [Example A15, 7-{4-[4-(2-Chloro-4-fluoro-3-methyl-phenyl)-piperazin-1-yl]-butoxy}-3,4-dihydro-1H-[1,8]naphthyridin-2-one] returned an Emax at 1 µM of 4%. `CCc1cccc(N2CCN(CCCCOc3ccc4c(n3)NC(=O)CC4)CC2)c1` [Example A16, 7-{4-[4-(3-Ethyl-phenyl)-piperazin-1-yl]-butoxy}-3,4-dihydro-1H-[1,8]naphthyridin-2-one] showed an Emax at 1 µM of 16%. Same read-out and setting: to `COc1c(Cl)cccc1N1CCN(CCCCOc2ccc3c(n2)NC(=O)CC3)CC1` [Example A17, 7-{4-[4-(3-Chloro-2-methoxy-phenyl)-piperazin-1-yl]-butoxy}-3,4-dihydro-1H-[1,8]naphthyridin-2-one] belongs 15%; to `COc1cccc(N2CCN(CCCCOc3ccc4c(n3)NC(=O)CC4)CC2)c1OC` [Example A19, 7-{4-[4-(2,3-Dimethoxy-phenyl)-piperazin-1-yl]-butoxy}-3,4-dihydro-1H-[1,8]naphthyridin-2-one], 10%. Same read-out and setting: for `CCOc1ccccc1N1CCN(CCCCOc2ccc3c(n2)NC(=O)CC3)CC1` [Example A20, 7-{4-[4-(2-Ethoxy-phenyl)-piperazin-1-yl]-butoxy}-3,4-dihydro-1H-[1,8]naphthyridin-2-one] the value was 19%; for `COc1cccc(N2CCN(CCCCOc3ccc4c(n3)NC(=O)CC4)CC2)c1Cl` [Example A22, 7-{4-[4-(2-Chloro-3-methoxy-phenyl)-piperazin-1-yl]-butoxy}-3,4-dihydro-1H-[1,8]naphthyridin-2-one], 36%; for `CC(C)Oc1ccc(Cl)cc1N1CCN(CCCCOc2ccc3c(n2)NC(=O)CC3)CC1` [Example A25, 7-{4-[4-(5-Chloro-2-isopropoxy-phenyl)-piperazin-1-yl]-butoxy}-3,4-dihydro-1H-[1,8]naphthyridin-2-one], 27%.

Staying with this experiment, now noted: Table 2; test compound 1 μM; 1 μM Quinpirole = 100% intrinsic activity.
Regarding `O=C1CCc2ccc(OCCCCN3CCN(c4cccc5[nH]c(=O)oc45)CC3)nc2N1` [Example A1′, 7-{4-[4-(2-Oxo-2,3-dihydro-benzooxazol-7-yl)-piperazin-1-yl]-butoxy}-3,4-dihydro-1H-[1,8]naphthyridin-2-one], the maximal response (Emax) at 1 µM turned out to be 73%. The same measure, in the same setting: for `O=C1CCc2ccc(OCCCCN3CCN(c4cccc5c4OCC5)CC3)nc2N1` [Example A2′, 7-{4-[4-(2,3-Dihydro-benzofuran-7-yl)-piperazin-1-yl]-butoxy}-3,4-dihydro-1H-[1,8]naphthyridin-2-one] the value was 21%; for `CC1(C)Cc2cccc(N3CCN(CCCCOc4ccc5c(n4)NC(=O)CC5)CC3)c2O1` [Example A3′, 7-{4-[4-(2,2-Dimethyl-2,3-dihydro-benzofuran-7-yl)-piperazin-1-yl]-butoxy}-3,4-dihydro-1H-[1,8]naphthyridin-2-one], 37%.

`O=C1CCc2ccc(OCCCCN3CCN(c4cccc5c4OCCC5)CC3)nc2N1` [Example A4′, 7-[4-(4-Chroman-8-yl-piperazin-1-yl)-butoxy]-3,4-dihydro-1H-[1,8]naphthyridin-2-one] displayed an Emax at 1 µM of 18%. `CC1(C)C=Cc2cccc(N3CCN(CCCCOc4ccc5c(n4)NC(=O)CC5)CC3)c2O1` [Example A5′, 7-{4-[4-(2,2-Dimethyl-2H-chromen-8-yl)-piperazin-1-yl]-butoxy}-3,4-dihydro-1H-[1,8]naphthyridin-2-one] displayed an Emax at 1 µM of 31%.

The compound `CC1(C)CCc2cccc(N3CCN(CCCCOc4ccc5c(n4)NC(=O)CC5)CC3)c2O1` [Example A6′, 7-{4-[4-(2,2-Dimethyl-chroman-8-yl)-piperazin-1-yl]-butoxy}-3,4-dihydro-1H-[1,8]naphthyridin-2-one] showed an Emax at 1 µM of 42%. For the compound `O=C1CCc2ccc(OCCCCN3CCN(c4cccc5c4OC4(C=C5)CCCC4)CC3)nc2N1` [Example A7′, 7-{4-[4-(Spiro[chromene-2,1′-cyclopentan]-8-yl)-piperazin-1-yl]-butoxy}-3,4-dihydro-1H-[1,8]naphthyridin-2-one], the maximum response (Emax) at 1 µM was 34%.

`O=C1CCc2ccc(OCCCCN3CCN(c4cccc5c4OC4(CCCC4)CC5)CC3)nc2N1` [Example A8′, 7-{4-[4-(3,4-Dihydrospiro[chromene-2,1′-cyclopentan]-8-yl)-piperazin-1-yl]-butoxy}-3,4-dihydro-1H-[1,8]naphthyridin-2-one] registered an Emax at 1 µM of 30%.

Turning to `CC1C=Cc2cccc(N3CCN(CCCCOc4ccc5c(n4)NC(=O)CC5)CC3)c2O1` (stereo not shown) [Example A9′, 7-{4-[4-(2-Methyl-2H-chromen-8-yl)-piperazin-1-yl]-butoxy}-3,4-dihydro-1H-[1,8]naphthyridin-2-one], the maximal response (Emax) at 1 µM is 30%. Still for that read-out and setting: for `O=C1CCc2ccc(OCCCCN3CCN(c4cccc5c4CCO5)CC3)nc2N1` [Example A11′, 7-{4-[4-(2,3-Dihydro-benzofuran-4-yl)-piperazin-1-yl]-butoxy}-3,4-dihydro-1H-[1,8]naphthyridin-2-one] the value was 17%; for `O=C1CCc2ccc(OCCCCN3CCN(c4cccc5c4CCCO5)CC3)nc2N1` [Example A13′, 7-[4-(4-Chroman-5-yl-piperazin-1-yl)-butoxy]-3,4-dihydro-1H-[1,8]naphthyridin-2-one], 14%. The same measure, in the same setting: to `O=C1CCc2ccc(OCCCCN3CCN(c4cccc5c4OCCO5)CC3)nc2N1` [Example A16′, 7-{4-[4-(2,3-Dihydro-benzo[1,4]dioxin-5-yl)-piperazin-1-yl]-butoxy}-3,4-dihydro-1H-[1,8]naphthyridin-2-one] belongs 15%. The same measure, in the same setting: for `O=C1CCc2ccc(OCCCCN3CCN(c4cccc5c4OCCCO5)CC3)nc2N1` [Example A17′, 7-{4-[4-(3,4-Dihydro-2H-benzo[b][1,4]dioxepin-6-yl)-piperazin-1-yl]-butoxy}-3,4-dihydro-1H-[1,8]naphthyridin-2-one] the value was 15%. `O=C1CCc2ccc(OCCCCN3CCN(c4cccc5c4OC(F)(F)C(F)(F)O5)CC3)nc2N1` [Example A18′, 7-{4-[4-(2,2,3,3-Tetrafluoro-2,3-dihydro-benzo[1,4]dioxin-5-yl)-piperazin-1-yl]-butoxy}-3,4-dihydro-1H-[1,8]naphthyridin-2-one] came in with a maximum response (Emax) at 1 µM of 13%. Same read-out and setting: for `O=C1CCc2ccc(OCCCCN3CCN(c4cccc5c4OC(F)(F)O5)CC3)nc2N1` [Example A19′, 7-{4-[4-(2,2-Difluoro-benzo[1,3]dioxol-4-yl)-piperazin-1-yl]-butoxy}-3,4-dihydro-1H-[1,8]naphthyridin-2-one] the value was 40%; for `CC1(C)COc2c(cccc2N2CCN(CCCCOc3ccc4c(n3)NC(=O)CC4)CC2)C1=O` [Example A21′, 7-{4-[4-(3,3-Dimethyl-4-oxo-chroman-8-yl)-piperazin-1-yl]-butoxy}-3,4-dihydro-1H-[1,8]naphthyridin-2-one], 24%. The compound `O=C1CCc2ccc(OCCCCN3CCN(c4cccc5ccoc45)CC3)nc2N1` [Example A23′, 7-[4-(4-Benzofuran-7-yl-piperazin-1-yl)-butoxy]-3,4-dihydro-1H-[1,8]naphthyridin-2-one] displayed an Emax at 1 µM of 39%.

As to `O=C1CCc2ccc(OCCCCN3CCN(c4cccc5cc[nH]c45)CC3)nc2N1` [Example A24′, 7-{4-[4-(1H-Indol-7-yl)-piperazin-1-yl]-butoxy}-3,4-dihydro-1H-[1,8]naphthyridin-2-one], the Emax at 1 µM amounted to 6%.

`O=C1CCc2ccc(OCCCCN3CCN(c4cccc5[nH]ccc45)CC3)nc2N1` [Example A25′, 7-{4-[4-(1H-Indol-4-yl)-piperazin-1-yl]-butoxy}-3,4-dihydro-1H-[1,8]naphthyridin-2-one] gave an Emax at 1 µM of 36%.

The values above are taken from US7160888B2, “[1,8]naphthyridin-2-ones and related compounds for the treatment of schizophrenia” (Warner Lambert Company LLC, priority 2003, dated 2007).
